Results published in patent publication US20240226117A1, “TREATMENT OF CONGENITAL ADRENAL HYPOPLASIA” (ReveraGen BioPharma, Inc., priority 2021, published 2024).

Key:
[1] = VBP15-002 Phase IIa multiple ascending dose trial: pharmacokinetics and safety; assay type: in vivo, human; conditions: DMD patients
Experimental: Vamorolone clinical studies have been conducted in adult male volunteers and boys with DMD, a disorder in which skeletal muscle is in a chronic inflammatory state. Two consecutive open-label dose-ranging studies in 48 DMD patients aged 4 to <7 years (corticosteroid-naïve) were conducted (Phase IIa, VBP15-002; Phase IIa, VBP15-003). Doses were tested over a 24-fold dose range (0.25, 0.75, 2.0, and 6.0 mg/kg/day), with 12 participants per group. The first multiple ascending dose (MAD) cohort trial-tested pharmacokinetics (PK) and safety for 2 weeks of drug dosing followed by a 2-week washout (VBP15-002). […] All DMD participants completed the MAD study and then continued on the same dose for a 24-week dose-finding (efficacy and safety) extension study (VBP15-003).
Three consecutive clinical trials of vamorolone treatment of DMD were conducted by CINRG (VBP15-002 [NCT02760264]: VBP15-003 [NCT02760277]: VBP15-LTE [NCT03038399]). A total of 48 participants (ages 4 to <7 years) were initially enrolled into VBP15-002, with trial participants completing month 12 of the 24-month VBP15-LTE study.
VBP15-002 (Phase IIa: two weeks on the drug, two weeks off drug) enrolled 48 corticosteroid-naïve participants with DMD, and all 48 participants completed the study and enrolled into VBP15-003 (Phase IIa extension: 24-week treatment). […]

[2] = biological target: T1, glucocorticoid receptor (Homo sapiens, UniProt P04150); conditions: background statement; cited from earlier work
T1 sequence (P04150 1-777): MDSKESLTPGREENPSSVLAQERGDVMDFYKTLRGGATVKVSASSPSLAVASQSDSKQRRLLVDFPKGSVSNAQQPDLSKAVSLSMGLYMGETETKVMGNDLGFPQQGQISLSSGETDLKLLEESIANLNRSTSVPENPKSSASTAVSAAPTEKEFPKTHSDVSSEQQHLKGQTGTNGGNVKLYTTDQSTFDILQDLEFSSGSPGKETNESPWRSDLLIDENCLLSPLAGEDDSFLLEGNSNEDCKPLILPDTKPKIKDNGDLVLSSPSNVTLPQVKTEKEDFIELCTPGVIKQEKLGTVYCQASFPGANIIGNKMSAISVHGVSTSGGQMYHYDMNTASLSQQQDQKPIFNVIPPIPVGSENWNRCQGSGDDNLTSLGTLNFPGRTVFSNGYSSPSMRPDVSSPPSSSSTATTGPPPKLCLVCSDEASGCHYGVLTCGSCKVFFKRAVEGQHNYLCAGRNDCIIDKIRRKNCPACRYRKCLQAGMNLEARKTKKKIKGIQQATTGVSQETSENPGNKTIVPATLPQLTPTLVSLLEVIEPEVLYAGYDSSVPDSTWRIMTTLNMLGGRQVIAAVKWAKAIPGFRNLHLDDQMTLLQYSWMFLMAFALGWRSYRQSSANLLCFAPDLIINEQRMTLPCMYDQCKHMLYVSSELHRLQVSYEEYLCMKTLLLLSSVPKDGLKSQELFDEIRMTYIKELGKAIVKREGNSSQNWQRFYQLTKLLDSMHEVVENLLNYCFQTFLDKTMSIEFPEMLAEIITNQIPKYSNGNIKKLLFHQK

[3] = system: DMD participants; experiment: Physician-reported adverse events in vamorolone trials and published corticosteroid studies; assay type: in vivo, human
Experimental: Study visits took place quarterly, including assessment of clinical laboratory results, vital signs, and AEs. All AEs were coded using the Medical Dictionary for Regulatory Activities (MedDRA version 19.0) system for reporting (preferred term and system organ class). Clinical efficacy assessments were performed at baseline of the VBP15-002 study, at six months (end of VBP15-003 study), and the 12-month midpoint visit of the VBP15-LTE study.
Treatment-emergent AEs (TEAEs) have been published for the 2-week treatment MAD study (VBP15-002) and the 24-week dose-finding extension study (VBP15-003). TEAEs were reported with similar incidence by participants in all four vamorolone groups.
A Data and Safety Monitoring Board report on the VBP15-LTE study covering all participants enrolled in the VBP15-LTE study (inclusive beyond the 12-month midpoint assessment) included three serious AEs (2 myoglobinuria events [in the same participant] and one pneumonia), all deemed unrelated to study drug. For all reported TEAEs, 402 were deemed unrelated to vamorolone, 37 were deemed remotely related, 29 were deemed possibly related, 11 were deemed probably related, and three were deemed definitely related. Of the 14 AEs probably and definitely related to vamorolone, 10 were weight gain, 2 were increased appetite, 1 was Cushingoid features, and 1 was irritability.
The incidences of physician-reported AEs typically for corticosteroid treatment were determined for participants that had been treated with vamorolone 6.0 mg/kg/day (for any duration), taken from the March 2019 Data Safety Update Report (DSUR) (pharmacovigilance report). Incidence rates of Cushingoid features, weight gain, hirsutism, and behavior change were studied (Table 8).

[4] = 6.0 mg/kg/day vamorolone (any duration), n = 38, DSUR 13 Mar. 2019

## C[C@@H]1C[C@H]2[C@@H]3CCC4=CC(=O)C=C[C@]4(C)C3=CC[C@]2(C)[C@@]1(O)C(=O)CO [Vamorolone, 17α,21-dihydroxy-16α-methylpregna-1,4,9(11)-triene-3,20-dione]
[1]; 0.25-6.0 mg/kg/day, 2 weeks of dosing
  dose-limiting toxicities: no dose-limiting toxicities
[1]; day 1 vs day 14
  drug accumulation: no drug accumulation
[2]
  binding to the glucocorticoid receptor: potently binds
[3]; [4]
  Incidence of physician-reported Cushingoid: 2.6%
  Incidence of physician-reported behavior change: 0%^2
  Incidence of physician-reported hypertrichosis/hirsutism: 0%
  Incidence of physician-reported weight gain: 13.2%
[3]; VBP15-LTE
  Cushingoid features among the 14 AEs probably and definitely related: 1
  increased appetite among the 14 AEs probably and definitely related: 2
  irritability among the 14 AEs probably and definitely related: 1
  weight gain among the 14 AEs probably and definitely related: 10
[3]; VBP15-LTE, all reported TEAEs
  TEAEs deemed definitely related: three
  TEAEs deemed possibly related: 29
  TEAEs deemed probably related: 11
  TEAEs deemed remotely related: 37
  TEAEs deemed unrelated to vamorolone: 402
[3]; all LTE participants, all deemed unrelated to study drug
  serious AEs in VBP15-LTE (Data and Safety Monitoring Board report): three
[3]; oral, all doses tested (0.25, 0.75, 2.0, 6.0 mg/kg/day)
  safety and tolerability over the 24-week treatment period (VBP15-003): safe and well-tolerated
